Measurements as given in patent publication US20170369444A1, “INHIBITORS OF HISTONE DEMETHYLASES” (Gilead Sciences, Inc., priority 2014, published 2017).

Tests used:
Assay type in all cases: biochemical
KDM4C (JMJD2C) = biological target: T1, KDM4C (JMJD2C) (Homo sapiens, UniProt Q9H3R0); test: Histone lysine demethylase AlphaLISA assay, KDM4C; settings: in vitro enzyme, read-out: KDM4C IC50 (HDME Inhibition)
T1 construct: 1-349; host or cells: E. coli
T1 sequence (Q9H3R0 1-349): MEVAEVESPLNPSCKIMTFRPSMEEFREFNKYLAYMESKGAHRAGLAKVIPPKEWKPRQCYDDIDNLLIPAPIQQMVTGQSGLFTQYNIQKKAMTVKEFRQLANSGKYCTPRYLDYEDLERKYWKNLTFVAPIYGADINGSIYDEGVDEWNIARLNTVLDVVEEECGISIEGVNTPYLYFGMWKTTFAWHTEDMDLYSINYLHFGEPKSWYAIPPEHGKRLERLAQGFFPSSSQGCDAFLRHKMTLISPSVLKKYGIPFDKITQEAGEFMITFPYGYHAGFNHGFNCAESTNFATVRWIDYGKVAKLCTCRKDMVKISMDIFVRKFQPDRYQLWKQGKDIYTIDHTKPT
Procedure: (§1) Histone lysine demethylase AlphaLISA assays are performed to determine IC50 values. […] Assays are performed analogously to the protocol described by PerkinElmer (Roy et al. PerkinElmer Technical Note: AlphaLISA #12, April 2011).
(§2) Assays are performed analogously to the protocol described by PerkinElmer (Roy et al. PerkinElmer Technical Note: AlphaLISA #12, April 2011).
(§3) Enzymes (final assay concentration 0.1-2.5 nM) are dissolved in enzyme buffer and incubated for 10 min before 5 μL is added to 5 μL 3% DMSO solutions of compounds in enzyme buffer, incubated for another 10 minutes, before 5 μL substrate solution is added and the reaction mixture is incubated at room temperature. 10 μL acceptor beads, suspended Epigenetic Buffer (Perkin Elmer AL008) from stock, are added and the suspension is incubated in the dark at room temperature, before 10 μL suspension of streptavidin donor beads (Perkin Elmer 6760002) in Epigenetic Buffer is added. After incubation at room temperature in the dark the plates are read.
(§4) Substrate solution: Substrate (final assay concentration 50-200 nM), 50 mM Hepes (pH 7.4-8.0), 0.003% Tween-20, 0.1% BS, 25 μM L-Asc, 10 μM α-KG. Enzyme Buffer: 50 mM Hepes (pH 7.4-8.0), 0.003% Tween-20, 0.1% BSA; 5 μM (NH4)2Fe(SO4)2

KDM6A (UTX) = biological target: T2, KDM6A (UTX) (Homo sapiens, UniProt O15550); test: Histone lysine demethylase AlphaLISA assay, KDM6A; settings: in vitro enzyme, read-out: KDM6A IC50 (HDME Inhibition)
T2 construct: 919-1401; host or cells: E. coli
Procedure: as §1, §2, §3, §4

PHF8 (KDM7) = PHF8 (KDM7) (Homo sapiens, UniProt Q9UPP1); test: Histone lysine demethylase AlphaLISA assay, PHF8; settings: in vitro enzyme, read-out: PHF8 IC50 (HDME Inhibition)
Procedure: as §1, §2, §3, §4

KDM5B (PLU-1) = biological target: T3, KDM5B (PLU-1) (Homo sapiens, UniProt Q9UGL1); test: Histone lysine demethylase AlphaLISA assay, KDM5B; settings: in vitro enzyme, read-out: KDM5B IC50 (HDME Inhibition)
T3 construct: 1-809; host or cells: E. coli
T3 sequence (Q9UGL1 1-809): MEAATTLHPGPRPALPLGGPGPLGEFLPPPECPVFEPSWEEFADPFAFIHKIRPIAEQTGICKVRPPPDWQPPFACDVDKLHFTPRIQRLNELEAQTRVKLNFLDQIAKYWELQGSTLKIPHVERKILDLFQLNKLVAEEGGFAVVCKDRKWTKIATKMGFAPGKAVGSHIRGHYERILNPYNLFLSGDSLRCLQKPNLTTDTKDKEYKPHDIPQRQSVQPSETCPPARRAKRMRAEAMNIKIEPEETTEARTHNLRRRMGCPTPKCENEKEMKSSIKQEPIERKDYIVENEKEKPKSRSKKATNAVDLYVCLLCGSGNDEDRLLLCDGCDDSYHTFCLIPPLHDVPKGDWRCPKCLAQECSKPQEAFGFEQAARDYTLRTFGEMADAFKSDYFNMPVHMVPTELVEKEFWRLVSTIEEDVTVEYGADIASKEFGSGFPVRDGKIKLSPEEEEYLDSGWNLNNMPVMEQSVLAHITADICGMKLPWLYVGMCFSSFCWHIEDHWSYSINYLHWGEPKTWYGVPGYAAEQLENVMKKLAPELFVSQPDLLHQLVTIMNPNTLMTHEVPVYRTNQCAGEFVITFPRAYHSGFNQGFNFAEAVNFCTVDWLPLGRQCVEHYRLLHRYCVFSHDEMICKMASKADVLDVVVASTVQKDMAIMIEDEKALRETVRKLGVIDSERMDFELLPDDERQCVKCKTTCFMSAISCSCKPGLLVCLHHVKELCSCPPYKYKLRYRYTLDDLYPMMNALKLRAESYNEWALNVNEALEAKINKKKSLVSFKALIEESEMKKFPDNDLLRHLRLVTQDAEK
Procedure: as §1, §2, §3, §4

KDM2B (FBXL10) = biological target: T4, KDM2B (FBXL10) (Homo sapiens, UniProt Q8NHM5); test: Histone lysine demethylase AlphaLISA assay, KDM2B; settings: in vitro enzyme, read-out: KDM2B IC50 (HDME Inhibition)
T4 construct: 1-650; purchased BPS Bioscience, US; host or cells: Bac (baculovirus/insect cells)
T4 sequence (Q8NHM5 1-650): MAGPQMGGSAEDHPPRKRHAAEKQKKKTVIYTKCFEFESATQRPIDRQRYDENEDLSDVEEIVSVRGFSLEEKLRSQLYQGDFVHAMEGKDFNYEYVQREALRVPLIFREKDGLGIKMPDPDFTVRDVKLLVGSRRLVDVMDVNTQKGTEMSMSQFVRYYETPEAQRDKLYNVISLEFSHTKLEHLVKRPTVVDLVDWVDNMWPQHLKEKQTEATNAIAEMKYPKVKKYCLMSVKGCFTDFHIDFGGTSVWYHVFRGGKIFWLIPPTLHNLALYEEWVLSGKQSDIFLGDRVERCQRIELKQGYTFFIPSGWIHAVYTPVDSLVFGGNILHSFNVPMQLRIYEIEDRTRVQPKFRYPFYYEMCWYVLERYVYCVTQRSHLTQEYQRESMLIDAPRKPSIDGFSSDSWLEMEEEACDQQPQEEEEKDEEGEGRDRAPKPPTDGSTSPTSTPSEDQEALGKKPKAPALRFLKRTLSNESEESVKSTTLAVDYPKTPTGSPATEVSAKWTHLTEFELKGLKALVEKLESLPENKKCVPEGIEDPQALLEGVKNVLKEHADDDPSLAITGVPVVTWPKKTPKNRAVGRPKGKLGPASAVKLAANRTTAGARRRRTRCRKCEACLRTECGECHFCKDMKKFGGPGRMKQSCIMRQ
Procedure: as §1, §2, §3, §4

T2 sequence (O15550 919-1401): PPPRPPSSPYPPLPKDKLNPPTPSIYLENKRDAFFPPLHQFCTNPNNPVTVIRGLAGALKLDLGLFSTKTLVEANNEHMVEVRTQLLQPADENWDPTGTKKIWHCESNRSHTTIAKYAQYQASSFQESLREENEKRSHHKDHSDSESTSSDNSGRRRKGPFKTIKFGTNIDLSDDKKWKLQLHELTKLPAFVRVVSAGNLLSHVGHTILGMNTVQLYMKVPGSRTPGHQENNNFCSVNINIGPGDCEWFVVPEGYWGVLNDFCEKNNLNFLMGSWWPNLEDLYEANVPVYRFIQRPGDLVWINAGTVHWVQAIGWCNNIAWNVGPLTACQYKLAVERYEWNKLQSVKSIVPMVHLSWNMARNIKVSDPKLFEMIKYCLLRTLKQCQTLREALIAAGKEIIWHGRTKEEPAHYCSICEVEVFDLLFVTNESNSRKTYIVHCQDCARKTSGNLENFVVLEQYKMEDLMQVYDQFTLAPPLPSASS
PHF8 (KDM7), sequence (Q9UPP1 whole entry): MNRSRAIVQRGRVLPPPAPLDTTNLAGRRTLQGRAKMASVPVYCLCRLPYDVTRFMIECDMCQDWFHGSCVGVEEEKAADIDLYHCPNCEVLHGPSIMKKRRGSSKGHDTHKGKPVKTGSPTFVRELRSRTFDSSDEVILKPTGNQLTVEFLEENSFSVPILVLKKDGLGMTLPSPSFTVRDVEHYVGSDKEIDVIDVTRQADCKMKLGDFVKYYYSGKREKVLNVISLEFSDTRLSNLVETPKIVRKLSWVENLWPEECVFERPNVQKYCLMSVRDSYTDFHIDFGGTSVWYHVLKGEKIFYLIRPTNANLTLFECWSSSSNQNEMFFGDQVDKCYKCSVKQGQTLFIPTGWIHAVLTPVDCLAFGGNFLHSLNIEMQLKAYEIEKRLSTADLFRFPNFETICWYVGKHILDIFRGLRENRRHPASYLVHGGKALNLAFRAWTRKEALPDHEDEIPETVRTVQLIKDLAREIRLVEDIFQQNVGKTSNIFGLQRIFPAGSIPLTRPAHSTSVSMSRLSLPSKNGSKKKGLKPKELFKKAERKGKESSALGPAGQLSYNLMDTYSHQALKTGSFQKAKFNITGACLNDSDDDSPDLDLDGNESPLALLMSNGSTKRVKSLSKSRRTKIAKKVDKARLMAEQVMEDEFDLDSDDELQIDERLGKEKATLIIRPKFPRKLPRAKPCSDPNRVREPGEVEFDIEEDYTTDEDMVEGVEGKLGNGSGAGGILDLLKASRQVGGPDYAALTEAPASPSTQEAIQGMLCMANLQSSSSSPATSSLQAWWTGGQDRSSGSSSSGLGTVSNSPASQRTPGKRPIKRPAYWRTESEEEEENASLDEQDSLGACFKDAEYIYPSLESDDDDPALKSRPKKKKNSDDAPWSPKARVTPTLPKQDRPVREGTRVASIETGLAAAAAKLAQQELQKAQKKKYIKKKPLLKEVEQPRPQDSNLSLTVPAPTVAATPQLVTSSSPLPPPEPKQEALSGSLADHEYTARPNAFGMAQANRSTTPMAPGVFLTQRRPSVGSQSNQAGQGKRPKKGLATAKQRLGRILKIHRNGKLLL

| SMILES | IC50 (KDM4C (JMJD2C)) [nM] | IC50 (KDM6A (UTX)) [nM] | IC50 (PHF8 (KDM7)) [nM] | IC50 (KDM5B (PLU-1)) [nM] | IC50 (KDM2B (FBXL10)) [nM] |
| --- | --- | --- | --- | --- | --- |
| CC(N[C@@H](C)C(=O)NCc1cccc(C(=O)O)c1)c1cc(C(=O)O)ccn1 (stereo partly drawn) [Compound 1, 2-(1-{[(1S)-1-{[(3-carboxyphenyl)methyl]carbamoyl}ethyl]amino}ethyl)pyridine-4-carboxylic acid] | > 2500 | > 2500 | – | – | – |
| CC(N[C@@H](C)C(=O)NCc1ccc([N+](=O)[O-])cc1)c1cc(C(=O)O)ccn1 (stereo partly drawn) [Compound 5, 2-(1-{[(1S)-1-{[(4-nitrophenyl)methyl]carbamoyl}ethyl]amino}ethyl)pyridine-4-carboxylic acid] | > 2500 | – | > 2500 | > 2500 | – |
| O=C(O)c1ccnc(CNCc2nccn2C/C=C/c2ccccc2)c1 [Compound 13, 2-{[({1-[(2E)-3-phenylprop-2-en-1-yl]-1H-imidazol-2-yl}methyl)amino]methyl}pyridine-4-carboxylic acid] | > 2500 | > 2500 | – | < 250 | – |
| CC(N[C@@H](C)C(=O)NCc1ccncc1)c1cc(C(=O)O)ccn1 (stereo partly drawn) [Compound 15, 2-(1-{[(1S)-1-[(pyridin-4-ylmethyl)carbamoyl]ethyl]amino}ethyl)pyri-dine-4-carboxylic acid] | > 2500 | > 2500 | – | > 2500 | – |
| CCN(CC)C(=O)CCN(CCNC(C)=O)Cc1cc(C(=O)O)ccn1 [Compound 27, 2-({[2-(diethylcarbamoyl)ethyl](2-acetamidoethyl)amino}methyl)pyridine-4-carboxylic acid] | – | > 2500 | 250 to 2500 | 250 to 2500 | 250 to 2500 |
| CSCC[C@H](NCc1cc(C(=O)O)ccn1)C(=O)OC(C)(C)C [Compound 49, 2-({[(2S)-1-(tert-butoxy)-4-(methylsulfanyl)-1-oxobutan-2-yl]amino}methyl)pyri-dine-4-carboxylic acid] | – | > 2500 | 250 to 2500 | – | 250 to 2500 |
| O=C(O)c1ccnc(CN2CCC(c3ccc(F)cc3)n3ccnc3C2)c1 (stereo not shown) [Compound 50, 2-{[5-(4-fluorophenyl)-5H,6H,7H,8H,9H-imidazo[1,2-a][1,4]diazepin-8-yl]methyl}pyridine-4-carboxylic acid] | > 2500 | – | > 2500 | 250 to 2500 | – |
| CC(C)C[C@@H](CO)NCc1cc(C(=O)O)ccn1 [Compound 61, (S)-2-{[(1-hydroxy-4-methylpentan-2-yl)amino]methyl}pyri-dine-4-carboxylic acid] | < 250 | – | – | < 250 | – |
| O=C(O)c1ccnc(CN2CCCC(C3CCCCC3)C2CO)c1 (stereo not shown) [Compound 62, 2-{[3-cyclohexyl-2-(hydroxymethyl)piperidin-1-yl]methyl}pyridine-4-carboxylic acid] | > 2500 | – | – | 250 to 2500 | – |
| O=C(O)c1ccnc(CN2CCCC(c3ccccc3)C2CO)c1 (stereo not shown) [Compound 63, 2-{[2-(hydroxymethyl)-3-phenylpiperidin-1-yl]methyl}pyridine-4-carboxylic acid] | > 2500 | – | – | > 2500 | – |
| CCNC(=O)C1CN(Cc2cc(C(=O)O)ccn2)C1 [Compound 68, 2-{[3-(ethylcarbamoyl)azetidin-1-yl]methyl}pyridine-4-carboxylic acid] | 250 to 2500 | – | < 250 | 250 to 2500 | – |
| O=C(O)c1ccnc(CN2CCCC[C@H]2CC(=O)N2CCCCC2)c1 [Compound 70, 2-{[(2S)-2-[2-oxo-2-(piperidin-1-yl)ethyl]piperidin-1-yl]methyl}pyridine-4-carboxylic acid] | > 2500 | – | > 2500 | – | – |
| CCNC(=O)C1CCN(Cc2cc(C(=O)O)ccn2)CC1 [Compound 75, 2-{[4-(ethylcarbamoyl)piper-idin-1-yl]methyl} pyridine-4-carboxylic acid] | – | > 2500 | 250 to 2500 | > 2500 | 250 to 2500 |
| COc1ccc([C@@H](C)N2CC[C@@H](CNCc3cc(C(=O)O)ccn3)C2=O)cc1 [Compound 78, 2-[({[(3S)-1-[(1R)-1-(4-methoxyphenyl)ethyl]-2-oxopyrrolidin-3-yl]methyl}amino)methyl]pyridine-4-carboxylic acid] | – | > 2500 | < 250 | – | < 250 |
| CC(C)(C)c1nc2ccccn2c1CNCc1cc(C(=O)O)ccn1 [Compound 88, 2-{[({2-tert-butylimidazo[1,2-a]pyridin-3-yl}methyl)amino]methyl}pyridine-4-carboxylic acid] | – | > 2500 | < 250 | < 250 | 250 to 2500 |
| O=C(O)c1ccnc(CNC2CCCn3ccnc32)c1 (stereo not shown) [Compound 90, 2-[({5H,6H,7H,8H-imidazo[1,2-a]pyridin-8-yl}amino)methyl]pyri-dine-4-carboxylic acid] | 250 to 2500 | – | < 250 | < 250 | – |
| O=C(O)c1ccnc(CNC2CCc3c(Br)ccnc32)c1 (stereo not shown) [Compound 91, 2-[({4-bromo-5H,6H,7H-cyclopenta[b]pyridin-7-yl}amino)methyl]pyri-dine-4-carboxylic acid] | 250 to 2500 | – | – | < 250 | – |
| O=C(O)c1ccnc(CNC2CCc3c(Cc4ccccc4)ccnc32)c1 (stereo not shown) [Compound 92, 2-[({4-benzyl-5H,6H,7H-cyclopenta[b]pyridin-7-yl}amino)methyl]pyri-dine-4-carboxylic acid] | – | > 2500 | 250 to 2500 | < 250 | 250 to 2500 |
| C=Cc1ccnc2c1CCC2NCc1cc(C(=O)O)ccn1 (stereo not shown) [Compound 100, 2-[({4-ethenyl-5H,6H,7H-cyclopenta[b]pyridin-7-yl}amino)methyl]pyri-dine-4-carboxylic acid] | 250 to 2500 | – | < 250 | < 250 | – |
| CCN1CC[C@@H](CNCc2cc(C(=O)O)ccn2)C1=O [Compound 105, 2-[({[(3S)-1-ethyl-2-oxopyrrolidin-3-yl]methyl}amino)methyl]pyridine-4-carboxylic acid] | – | > 2500 | < 250 | – | < 250 |
